For orientation: DC50 means the concentration at which degradation of the target reaches its halfway point. For orientation: Dmax means the largest share of the target that was removed. As a reminder, the pIC50 is the negative decadic logarithm of the IC50, by convention in mol/L.

pIC50: −log10 of the molar value.

For test [1], the target named is T1, ERα (Homo sapiens, UniProt P03372).
T1 sequence (P03372 1-595): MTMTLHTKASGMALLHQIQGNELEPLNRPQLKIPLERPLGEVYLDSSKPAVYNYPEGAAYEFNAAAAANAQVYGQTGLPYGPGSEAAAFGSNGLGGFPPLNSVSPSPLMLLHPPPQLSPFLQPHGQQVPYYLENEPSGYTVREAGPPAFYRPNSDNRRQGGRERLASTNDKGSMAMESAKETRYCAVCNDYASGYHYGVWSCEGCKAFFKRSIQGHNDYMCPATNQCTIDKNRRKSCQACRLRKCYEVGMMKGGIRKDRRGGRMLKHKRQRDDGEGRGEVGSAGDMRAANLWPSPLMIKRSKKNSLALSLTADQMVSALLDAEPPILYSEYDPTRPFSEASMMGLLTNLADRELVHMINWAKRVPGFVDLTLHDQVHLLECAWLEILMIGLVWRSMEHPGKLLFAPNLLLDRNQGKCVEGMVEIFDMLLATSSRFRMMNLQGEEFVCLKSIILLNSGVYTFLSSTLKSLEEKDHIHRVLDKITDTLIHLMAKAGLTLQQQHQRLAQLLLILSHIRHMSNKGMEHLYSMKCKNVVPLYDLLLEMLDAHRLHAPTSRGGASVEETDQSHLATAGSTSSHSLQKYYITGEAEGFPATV
Description: Estrogen receptor-alpha (ERα) degradation assay in MCF-7 cells using western blot. Format: cell-based. More on the design: assessed for their activity in degrading ERα in MCF-7 cells via western blot; endogenous in cells; host or cells: MCF7 cells. The note with it: ER-alpha degradation, MCF7 cells, 3 days of incubation. Here is the method: Compounds prepared in this application were also analyzed for the degradation of ERα in MCF7 and T47D cells.
Estrogen Receptor-Alpha (ERα) Degradation Assay in MCF-7 Cells Using Western Blot Method for Table 4.
The exemplary novel ERα degraders were assessed for their activity in degrading ERα in MCF-7 cells via western blot. The assay was carried out in the presence of 10% fetal bovine serum (FBS) or high percentage of human or mouse serum.
MCF7 cells were grown in DMEM/F12 with 10% fetal bovine serum and seeded at 24,000 cells per well in 100 μl into 96-well clear tissue culture plates. The following day, the cells were treated with PROTACs in a […] concentration curve with 100 nM being the top concentration and serial dilutions to make the other concentrations (30 nM, 10 nM, 3 nM, 1 nM, and 0.3 nM). At all concentrations, 0.01% DMSO is the final concentration in the well. The following day, the plates are aspirated, washed with 50 μl of cold PBS. The cells are lysed with 50 μl/well 4° C. Cell Lysis Buffer (Catalog #9803; Cell Signaling Technology, Danvers, Mass.) (20 mM Tris-HCL (pH 7.5), 150 mM NaCl, 1 mM […], 1 mM EGTA, 1% Triton, 2.5 mM sodium pyrophosphate, 1 mM B-glycerophosphate, 1 mM sodium vanadate, 1 ug/ml leupeptin). Lysates were clarified at 16,000×g for 10 minutes, and 2 μg of protein was subjected to SDS-PAGE analysis and followed by immunoblotting according to standard protocols. The antibodies used were ERα (Cell Signaling Technologies Catalog #8644), and Tubulin (Sigma Catalog #T9026; St. Louis, Mo.). Detection reagents were Clarity Western ECL substrate (Bio-Rad Catalog #170-5060; Hercules, Calif.).
Alternatively, MCF7 cells were grown in DMEM/F12 with 10% fetal bovine serum and seeded at 24,000 cells per well in 500 μl in 24-well clear tissue culture plates. The following day, the cells were treated with PROTACs in a 5-point concentration curve (100 nM, 33 nM, 11 nM, 3.7 nM, and 1.2 nM) in the presence of 0.01% DMSO. After 72 hours, the wells are aspirated and washed with 500 μl of PBS. The cells are lysed with 100 μl/well 4° C. Cell Lysis Buffer (Catalog #9803; Cell Signaling Technology, Danvers, M A) (20 mM Tris-HCL (pH 7.5), 150 mM NaCl, 1 mM Na2EDTA, 1 mM EGTA, 1% Triton, 2.5 mM sodium pyrophosphate, 1 mM B-glycerophosphate, 1 mM sodium vanadate, 1 ug/ml leupeptin). Lysates were clarified at 16,000×g for 10 minutes, and 2 μg of protein was subjected to SDS-PAGE analysis and followed by immunoblotting according to standard protocols. The antibodies used were ER(X (Cell Signaling Technologies Catalog #8644), and Tubulin (Sigma Catalog #T9026; St. Louis, Mo.). Detection reagents were Clarity Western ECL substrate (Bio-Rad Catalog #170-5060; Hercules, Calif.).
For orientation: Immunoblotting shows a protein as a band on a membrane.

The target of test [2] is T1, ERα. Description: ERE luciferase reporter gene assay in T47D-KBluc cells (target engagement). Format: cell-based. More on the design: T47D human breast cancer cells stably transfected with estrogen responsive element/promoter/luciferase reporter gene; host or cells: T47D-KBluc cells. The note with it: 10% FBS, 24 hours, Table 2 VHL centric PROTACs, read-out: IC50. The method in brief: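 T47D-KBluc breast cancer cells, which carry a stable ERE-luciferase reporter, were grown in RPMI with 10% FBS (about 10 pM estrogen) and exposed to PROTACs for 24 h. The 12-point, 3-fold series ran from 300 nM to 2 pM. Luciferase was read after lysis, and IC50 was fitted from duplicates.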
A general note: In a reporter assay the amount or activity of a reporter protein is the signal.

In test [1], `Cc1ncsc1-c1ccc(CNC(=O)[C@@H]2C[C@@H](O)CN2C(=O)[C@@H](NC(=O)COCCN2CCN(CCOc3ccc(Oc4c(-c5ccc(F)cc5)sc5cc(O)ccc45)cc3)CC2)C(C)(C)C)cc1` [Compound 118, (2S,4R)-1-((S)-2-(2-(2-(4-(2-(4-((2-(4-fluorophenyl)-6-hydroxybenzo[b]thiophen-3-yl)oxy)phenoxy)ethyl)piperazin-1-yl)ethoxy)acetamido)-3,3-dimethylbutanoyl)-4-hydroxy-N-(4-(4-methylthiazol-5-yl)benzyl)pyrrolidine-2-carboxamide] registered a DC50 of less than 1 nM and a Dmax of more than 75%. Besides, the pIC50 in test [2] was 9.40.
In test [1], `Cc1ncsc1-c1ccc(CNC(=O)[C@@H]2C[C@@H](O)CN2C(=O)[C@@H](NC(=O)COCCOCCN2CCC(c3ccc(Oc4c(-c5ccc(F)cc5)sc5cc(O)ccc45)cc3)CC2)C(C)(C)C)cc1` [Compound 135, (2S,4R)-1-[(2S)-2-[2-(2-[2-[4-(4-[[2-(4-fluorophenyl)-6-hydroxy-1-benzothiophen-3-yl]oxy]phenyl)piperidin-1-yl]ethoxy]ethoxy)acetamido]-3,3-dimethylbutanoyl]-4-hydroxy-N-[[4-(4-methyl-1,3-thiazol-5-yl)phenyl]methyl]pyrrolidine-2-carboxamide] showed a half-maximal degradation concentration (DC50) of less than 1 nM and a maximal degradation (Dmax) of more than 75%. The negative logarithm of the IC50 (pIC50) in test [2] was 9.10.
In test [1], `C[C@H](NC(=O)[C@@H]1C[C@@H](O)CN1C(=O)[C@@H](NC(=O)Cc1ccc(-c2ccn(CCOc3ccc(Oc4c(-c5ccc(F)cc5)sc5cc(O)ccc45)cc3)n2)cc1)C(C)(C)C)c1ccc(Cl)cc1` [Compound 150, (2S,4R)-N-[(1S)-1-(4-chlorophenyl)ethyl]-1-[(2S)-2-[2-(4-[1-[2-[4-[[2(4-fluorophenyl)-6-hydroxy-1-benzothiophen-3-yl]oxy]phenoxy)ethyl]-1H-pyrazol-3-yl]phenyl)acetamido]-3,3-dimethylbutanoyl]-4-hydroxypyrrolidine-2-carboxamide] showed a DC50 of 10 to 100 nM and a Dmax of more than 75%. Also, in test [2], the negative logarithm of the IC50 (pIC50) was 7.77.
With `C[C@H](NC(=O)[C@@H]1C[C@@H](O)CN1C(=O)[C@@H](NC(=O)COCCOCCN1CCC(c2ccc(Oc3c(-c4ccc(F)cc4)sc4cc(O)ccc34)cc2)CC1)C(C)(C)C)c1ccc(C#N)cc1` [Compound 147, (2S,4R)—N-[(1S)-1-(4-cyanophenyl)ethyl]-1-[(2S)-2-[2-(2-[2-[4-(4-[[2-(4-fluorophenyl)-6-hydroxy-1-benzothiophen-3-yl]oxy]phenyl)piperidin-1-yl]ethoxy]ethoxy)acetamido]-3,3-dimethylbutanoyl]-4-hydroxypyrrolidine-2-carboxamide], in test [1], the 50% degradation concentration (DC50) fell in the range of 1 to 10 nM and the Dmax was more than 75%. For the same compound, in test [2], the negative logarithm of the IC50 (pIC50) is 9.00.
For `Cc1ncsc1-c1ccc(CNC(=O)[C@@H]2C[C@@H](O)CN2C(=O)[C@@H](NC(=O)Cc2ccc(-c3ccn(CCOc4ccc(Oc5c(-c6ccc(F)cc6)sc6cc(O)ccc56)cc4)n3)cc2)C(C)(C)C)cc1` [Compound 121, (2S,4R)-1-[(2S)-2-[2-(4-[1-[2-(4-[[2-(4-fluorophenyl)-6-hydroxy-1-benzothiophen-3-yl]oxy]phenoxy)ethyl]-1H-pyrazol-3-yl]phenyl)acetamido]-3,3-dimethylbutanoyl]-4-hydroxy-N-[[4-(4-methyl-1,3-thiazol-5-yl)phenyl]methyl]pyrrolidine-2-carboxamide], in that order: 1 to 10 nM, more than 75% and 9.00.
In test [1], `Cc1ncsc1-c1ccc(CNC(=O)[C@@H]2C[C@@H](O)CN2C(=O)[C@@H](NC(=O)COc2cccc(CCN(C)CCOc3ccc(Oc4c(-c5ccc(F)cc5)sc5cc(O)ccc45)cc3)c2)C(C)(C)C)cc1` [Compound 139, (2S,4R)-1-[(2S)-2-[2-[3-(2-[[2-(4-[[2-(4-fluorophenyl)-6-hydroxy-1-benzothiophen-3-yl]oxy]phenoxy)ethyl](methyl)amino]ethyl)phenoxy]acetamido]-3,3-dimethylbutanoyl]-4-hydroxy-N-[[4-(4-methyl-1,3-thiazol-5-yl)phenyl]methyl]pyrrolidine-2-carboxamide] yielded a DC50 of less than 1 nM and a Dmax of more than 75%. In addition, the pIC50 in test [2] was 9.22.
In test [1], `Cc1ncoc1-c1ccc([C@H](C)NC(=O)[C@@H]2C[C@@H](O)CN2C(=O)[C@@H](NC(=O)COCCOCCOCCOc2ccc(Oc3c(-c4ccccc4)sc4cc(O)ccc34)cc2)C(C)(C)C)cc1` [Compound 138, (2S,4R)-1-((S)-2-tert-butyl-14-(4-(6-hydroxy-2-phenylbenzo[b]thiophen-3-yloxy)phenoxy)-4-oxo-6,9,12-trioxa-3-azatetradecane)-4-hydroxy-N-((S)-1-(4-(4-methyloxazol-5-yl)phenyl)ethyl)pyrrolidine-2-carboxamide] returned a DC50 of less than 1 nM and a Dmax of more than 75%. For the same compound, in test [2], the pIC50 was 10.00.
For `Cc1ncsc1-c1ccc([C@H](C)NC(=O)[C@@H]2C[C@@H](O)CN2C(=O)[C@@H](NC(=O)COCCOCCOCCOc2ccc(Oc3c(-c4ccc(Br)cc4)sc4cc(O)ccc34)cc2)C(C)(C)C)cc1` [Compound 126, (2S,4R)-1-((S)-14-(4-(2-(4-bromophenyl)-6-hydroxybenzo[b]thiophen-3-yloxy)phenoxy)-2-tert-butyl-4-oxo-6,9,12-trioxa-3-azatetradecane)-4-hydroxy-N-((S)-1-(4-(4-methylthiazol-5-yl)phenyl)ethyl)pyrrolidine-2-carboxamide], in that order: less than 1 nM, more than 75% and 9.70.
As to `C[C@H](NC(=O)[C@@H]1C[C@@H](O)CN1C(=O)[C@@H](NC(=O)Cc1ccc(-c2ccn(CCOc3ccc(Oc4c(-c5ccc(F)cc5)sc5cc(O)ccc45)cc3)n2)cc1)C(C)(C)C)c1ccc(C#N)cc1` [Compound 149], in test [1], the DC50 is 1 to 10 nM and the maximal degradation (Dmax) is more than 75%. In addition, the pIC50 in test [2] is 8.85.
Consider `Cc1ncsc1-c1ccc(CNC(=O)[C@@H]2C[C@@H](O)CN2C(=O)[C@@H](NC(=O)CCc2cccc(-c3ccn(CCOc4ccc(Oc5c(-c6ccc(F)cc6)sc6cc(O)ccc56)cc4)n3)c2)C(C)(C)C)cc1` [Compound 130, (2S,4R)-1-[(2S)-2-[3-(3-[1-[2-(4-[[2-(4-fluorophenyl)-6-hydroxy-1-benzothiophen-3-yl]oxy]phenoxy)ethyl]-1H-pyrazol-3-yl]phenyl)propanamido]-3,3-dimethylbutanoyl]-4-hydroxy-N-[[4-(4-methyl-1,3-thiazol-5-yl)phenyl]methyl]pyrrolidine-2-carboxamide], for which, in test [1], the DC50 fell in the range of 1 to 10 nM and the maximal degradation (Dmax) was more than 75%. The negative-log IC50 (pIC50) in test [2] was 8.46.

Source of the values: patent publication US11384063B2, “Modulators of estrogen receptor proteolysis and associated methods of use” (Arvinas Operations, Inc., priority 2017, dated 2022).
